Assay [1] addresses T1, human prostatic tyrosyl phosphatase (Homo sapiens, UniProt P15309).
T1 construct: purchased Sigma Chemical Co
T1 sequence (P15309 33-386): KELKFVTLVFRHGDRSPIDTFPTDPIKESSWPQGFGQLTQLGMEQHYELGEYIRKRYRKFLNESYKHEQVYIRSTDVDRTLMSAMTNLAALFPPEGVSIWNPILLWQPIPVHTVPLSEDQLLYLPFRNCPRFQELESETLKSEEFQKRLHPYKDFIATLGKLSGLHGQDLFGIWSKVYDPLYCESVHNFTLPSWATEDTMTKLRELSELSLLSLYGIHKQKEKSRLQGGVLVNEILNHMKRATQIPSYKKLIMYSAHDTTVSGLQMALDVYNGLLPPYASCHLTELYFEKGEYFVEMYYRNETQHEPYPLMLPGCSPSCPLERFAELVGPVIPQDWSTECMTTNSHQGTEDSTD
Description: biochemical. To be noted: 30 minutes at 37° C., pH 5.5, (14C)-phosphotyrosine substrate; read-out: Tyr-Pase IC50. The procedure:
Inhibition of the activity of tyrosyl protein phosphatase was evaluated by incubating an aliquot of purified human prostatic tyrosyl protein acid phosphatase (Sigma Chemical Co.) with radiolabeled phosphotyrosine. The radiolabeled substrate, (^14 C)-phosphotyrosine, is separated from the product, (^14 C)-tyrosine by ion exchange chromatography and the production of radiolabeled tyrosine is quantified. Test compounds are screened at a concentration of one micromolar to 1 nM. The ability of test compounds to inhibit tyrosyl phosphatase was expressed as the % inhibition at the highest concentration of test compound tested and/or as the IC50 in Table 1.
The test compounds were incubated in the presence of tyrosyl acid phosphatase and radiolabeled substrate {(^14 C)-phosphotyrosine, (NEN Dupont Custom Synthesis)} plus cold O-phospho-L-tyrosine{(10 uM) (Sigma Chemical Co.)} in a 0.05 mM sodium acetate buffer (pH 5.5) for 30 minutes at 37° C. […] The incubation mixture was passed over an ion-exchange column {(Ag 1-X8) (Bio-Rad Laboratories)} and washed with 2.5 ml of distilled, deionized water. The total column effluent containing the radiolabeled product (^14 C-tyrosine) was collected and quantified by liquid scintillation spectroscopy. The test compounds IC50 was calculated using a quantal (all-or-none) dose-response calculation.

The target in assay [2] is T2, Human osteoclastic acid phosphatase (OAP) (Homo sapiens, UniProt P13686).
T2 construct: purified from hairy cell leukemia spleen; from tissue; host or cells: human hairy cell leukemia spleen
T2 sequence (P13686 22-325): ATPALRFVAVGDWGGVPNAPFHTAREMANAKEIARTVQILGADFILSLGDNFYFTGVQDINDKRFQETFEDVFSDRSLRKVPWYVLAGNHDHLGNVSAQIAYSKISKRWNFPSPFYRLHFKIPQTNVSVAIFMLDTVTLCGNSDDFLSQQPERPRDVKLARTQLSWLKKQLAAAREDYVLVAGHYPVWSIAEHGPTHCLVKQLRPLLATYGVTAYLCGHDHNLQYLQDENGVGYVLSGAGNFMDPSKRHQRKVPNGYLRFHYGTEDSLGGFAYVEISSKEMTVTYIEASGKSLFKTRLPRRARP
Description: Osteoclastic Acid Phosphatase (OAP) inhibition. In kind it is biochemical. Conditions: for inhibition at 100 µM: read-out: OAPase % Inh@100 uM. On the procedure: Inhibitors of the enzyme are involved with the stimulation of osteoblast cell proliferation in cell culture which is predictive of enhancement of bone mass and bone formation in vivo. Inhibitors of osteoclastic acid phosphatase prevent the resorptive action of osteoclasts and thereby prevent the degradation of bone mass associated with osteoporosis.
The enzyme was stored at -80° C. and was diluted in 50 mM, pH 5.0, sodium acetate buffer prior to use. Test compounds were dissolved in ethanol, DMSO, or water and tested at 100 μM. The assay measures the ability of the enzyme to dephosphorylate methylumbelliferone phosphate to the product, methylumbelliferone, which is fluorescent. The enzyme assay is performed in 50 mM, pH 5.0, sodium acetate buffer as follows: 5 μL of compound was added to 150 μL Of buffered enzyme solution. […] The reaction was performed at room temperature at pH=5.0 and terminated after 20 minutes by the addition of 50 μL of 4N NaOH. The reaction product, methylumbelliferone, was measured by fluorescence determination using a Dynatech Microfluor Fluorescence detector.

Where [3] appears, read: pH 5.0, room temperature, 20 minutes.
Setting [4] is: pH 5.0, room temperature, 20 minutes, read-out: OAPase IC50.

Read-outs that look alike come from different tables or passages of the source.

`O=P(O)(O)C(c1ccccc1)c1ccccc1C(F)(F)F` (centres unmarked) [Cmpd 14, 2-Trifluoromethylphenyl(phenyl)methylphosphonic Acid]: the half-maximal inhibitory concentration (IC50) (in general, the concentration at which inhibition is half-maximal) in assay [1] stood at 8.9 µM. The inhibition at 100 µM in assay [2] (setting [3]) was found to be 9%.

Take `O=P(O)(O)C(c1ccccc1)c1ccccc1Cl` (centres unmarked) [Cmpd 13]: the half-inhibitory concentration (IC50) in assay [1] worked out at 30.7 µM. Besides, the inhibition at 100 µM in assay [2] (setting [3]) stood at 12%.

Consider `O=[N+]([O-])c1ccc(CC(c2cccc3ccccc23)P(=O)(O)O)cc1` (centres unmarked) [Cmpd 47], for which, in assay [2] (setting [3]), the inhibition at 100 µM came out at 80%.

For `O=P(O)(O)C(Cc1ccccc1)c1cccc(C(F)(F)F)c1` (centres unmarked) [Cmpd 36], the concentration for half-maximal inhibition (IC50) in assay [1] was found to be 100 µM. The inhibition at 100 µM in assay [2] (setting [3]) amounted to 12%.

Turning to `Cc1ccc(C)c(C(c2ccccc2)P(=O)(O)O)c1` (centres unmarked) [Cmpd 19, 2,5-Dimethylphenyl(phenyl)methylphosphonic Acid], in assay [1], the half-maximal inhibitory concentration (IC50) came to 36.5 µM. Further, in assay [2] (setting [3]), the inhibition at 100 µM turned out to be 13%.

Regarding `O=P(O)(O)C(c1ccccc1)c1ccc(Br)cc1` (centres unmarked) [Cmpd 26], in assay [1], the IC50 was 102 µM. Further, the inhibition at 100 µM in assay [2] (setting [3]) came to 20%.

For the molecule `O=P(O)(O)C(Cc1ccc(Cl)cc1)c1cccc2ccccc12` (centres unmarked) [Cmpd 48, 4-Chlorobenzyl(1-naphthyl)methylphosphonic acid], the IC50 in assay [1] came out at 56.9 µM; in assay [2] it was 21 µM. Besides, the inhibition at 100 µM in assay [2] (setting [3]) amounted to 94%.

As to `O=[N+]([O-])c1cccc(C(c2ccccc2)P(=O)(O)O)c1` (centres unmarked) [Cmpd 17], the IC50 in assay [1] was found to be 17 µM. Besides, the inhibition at 100 µM in assay [2] (setting [3]) amounted to 89%.

Take `COc1ccc(CC(c2cccc3ccccc23)P(=O)(O)O)cc1` (centres unmarked) [Cmpd 44]: in assay [2] (setting [3]), the inhibition at 100 µM was determined as 73%.

Consider `Cc1cccc(CC(c2cccc(C(F)(F)F)c2)P(=O)(O)O)c1` (centres unmarked) [Cmpd 31], for which, in assay [1], the concentration for half-maximal inhibition (IC50) turned out to be 36 µM. Besides, the inhibition at 100 µM in assay [2] (setting [3]) stood at 25%.

For `O=P(O)(O)C(Cc1ccccc1)c1cccc2ccccc12` (centres unmarked) [Cmpd 45], the 50% inhibitory concentration (IC50) in assay [1] is 67.2 µM; in assay [2] (setting [4]) it was 21 µM. Besides, in assay [2] (setting [3]), the inhibition at 100 µM worked out at 92%.

Take `Cc1ccc2c(C(CC3CCCCC3)P(=O)(O)O)cccc2c1` (centres unmarked) [Cmpd 43]: the IC50 in assay [1] was greater than 10 µM; in assay [2] (setting [4]), 11.4 µM. Moreover, in assay [2] (setting [3]), the inhibition at 100 µM was found to be 73%.

`Cc1ccccc1C(c1ccccc1)P(=O)(O)O` (centres unmarked) [Cmpd 11]: the IC50 in assay [1] amounted to 37.8 µM. Further, the inhibition at 100 µM in assay [2] (setting [3]) came out at 13%.

For `O=P(O)(O)C(c1ccc(-c2ccccc2)cc1)C1CCCCC1` (centres unmarked) [Cmpd 6], in assay [1], the half-inhibitory concentration (IC50) came to 37 µM. Also, the inhibition at 100 µM in assay [2] (setting [3]) stood at 40%.

As to `COc1ccc(C(c2ccccc2)P(=O)(O)O)cc1` (centres unmarked) [Cmpd 24], the IC50 in assay [1] was 36.6 µM. The inhibition at 100 µM in assay [2] (setting [3]) was 28%.

`Cc1ccccc1C(C1CCCCC1)P(=O)(O)O` (centres unmarked) [Cmpd 8]: the inhibition at 100 µM in assay [2] (setting [3]) was determined as 16%.

As to `Cc1cccc(C(c2ccccc2)P(=O)(O)O)c1` (centres unmarked) [Cmpd 18], the IC50 in assay [1] amounted to 14 µM. In assay [2] (setting [3]), the inhibition at 100 µM worked out at 4%.

For `O=P(O)(O)C(c1ccccc1)c1ccc(Cl)cc1` (centres unmarked) [Cmpd 27], the concentration for half-maximal inhibition (IC50) in assay [1] was 142 µM. In assay [2] (setting [3]), the inhibition at 100 µM came out at 17%.

Consider `O=P(O)(O)C(c1ccc(-c2ccccc2)cc1)c1ccc(-c2ccccc2)cc1` [Cmpd 28], for which the 50% inhibitory concentration (IC50) in assay [1] was 50 to 100 µM; in assay [2] (setting [4]) it was 17 µM. Moreover, the inhibition at 100 µM in assay [2] (setting [3]) was 100%.

For `O=P(O)(O)C(c1ccccc1)C1CCCCC1` (centres unmarked) [Cmpd 4], the IC50 in assay [1] was determined as 6.9 µM; in assay [2] (setting [4]) it was 1.4 µM.

Regarding `O=P(O)(O)C(Cc1ccc(-c2ccccc2)cc1)c1cccc(C(F)(F)F)c1` (centres unmarked) [Cmpd 38], the half-inhibitory concentration (IC50) in assay [1] worked out at 35.7 µM; in assay [2] (setting [4]) it was 22 µM. Also, the inhibition at 100 µM in assay [2] (setting [3]) is 100%.

Take `O=P(O)(O)C(c1ccccc1)c1cccc(C(F)(F)F)c1` (centres unmarked) [Cmpd 16]: the 50% inhibitory concentration (IC50) in assay [1] was determined as 67.1 µM. For the same molecule, the inhibition at 100 µM in assay [2] (setting [3]) stood at 26%.

As for `O=P(O)(O)C(Cc1ccc(C(F)(F)F)cc1)c1cccc(C(F)(F)F)c1` (centres unmarked) [Cmpd 32], the IC50 in assay [1] turned out to be 66.2 µM. The inhibition at 100 µM in assay [2] (setting [3]) was 10%.

With `Cc1cccc(C(C2CCCCC2)P(=O)(O)O)c1` (centres unmarked) [Cmpd 7], in assay [2] (setting [3]), the inhibition at 100 µM turned out to be 16%.

For the molecule `Cc1ccc(CC(c2cccc3ccccc23)P(=O)(O)O)cc1` (centres unmarked) [Cmpd 46], the inhibition at 100 µM in assay [2] (setting [3]) came to 75%.

These data come from US5508273A, “Substituted phosphonic acids and derivatives useful in treating bone wasting diseases” (priority 1993, dated 1996).
